{"source": "patent US20080206819A1", "about": "“Intensified Perfusion Production Method” (priority 2006, published 2008)", "assay_type_in_all_cases": "cell-based", "key": {"[1]": {"tested_on": "Chinese hamster ovary (CHO) cell line", "experiment": "Cell viability, traditional perfusion vs. RaMP (trypan blue staining)", "description": "The production cell line used for all experiments is a CHO (Chinese Hamster Ovary) cell-derived cell line transfected with the desired construct to produce a recombinant IgG1 protein. For all of the experiments, the cell line was grown in the RBM12.1 media under selective pressure (100 μg/ml Hygromycin B and 500 nM methotrexate). The cells were seeded in at a density of 4×10^5 to 1×10^6 cells per milliliter, depending on bioreactor size. pH was kept at 7.1±0.05 and temperature was kept at 37° C.±0.5. The perfusion rate for both traditional perfusion and the methods of the invention (RaMP) was 1.0 to 2.0 volumes/day. The cell retention devices used were the hollow fiber system and/or the cell settler system. […] The cell settler system (retention by gravity) seem to overcome this problem. Sodium butyrate was introduced into the bioreactor after the cells reached the desired cell density (around 20 million cells/ml). Once sodium butyrate was introduced into the perfusion system, the cells were kept at that sodium butyrate condition until the next higher dose. This gradual ramping of sodium butyrate concentration was continued until the desired final concentration of sodium butyrate was reached. Once the desired sodium butyrate concentration is reached, the cells are grown in media in media containing the desired sodium butyrate concentration for the rest of the production run.\nThe mammalian host cell line used is a Chinese hamster ovary (CHO) cell line. This cell line has been transfected with the light and heavy chains of a chimeric IgG1 monoclonal antibody. The cells were grown in RBM12.1 medium under selective pressure (100 μg/ml Hygromycin B and 500 nM methotrexate (MTX). The medium used for this example contained the components in Table 1. Additional factors such as 10 μg/ml recombinant human insulin and 0.1% F68 are also added to the medium.\nDuring the growth period, the cultures were controlled at pH 7.1±0.05 by the use of CO2 gas (acid) and/or Na2CO3 (base). Temperature was controlled at 37°±0.5 Celsius. Oxygen level was maintained at about 100% air saturation. For the initial growth period, CO2 level was maintained at 5%. When the cell density reached […] cells/ml, CO2 gas to the culture was turned off. The osmolality of the culture was maintained between 325 to 400 mOsm with minimal osmolality drift.\nIn a typical production schedule, 5×10^5 to 1×10^6 cells were inoculated into the cell culture bioreactor. 1 to 1.5 volumes of media was perfused daily. Cell density and viability was monitored by pulling a sample from the bioreactor and counted using trypan blue staining for live/dead cells.\nTen days after inoculation, the production period was started with the gradual addition of sodium butyrate (Na butyrate) into the RaMP cultures. 1.5 volume of RBM12.1 medium with 1 mM Na butyrate was perfused into the biorector on day 1 of the production period. This concentration of Na butyrate was kept in the bioreactor using the RaMP method for the duration of the production period. For cells in the traditional perfusion method, RBM12.1 media without Na butyrate was perfused into the bioreactor at the same perfusion rate as used in the RaMP method. Cell viability was monitored daily."}, "[2]": {"tested_on": "Chinese hamster ovary (CHO) cell line", "experiment": "Effect of increasing sodium butyrate concentrations on cell viability in perfusion culture", "description": "Additional experiments using higher concentrations of sodium butyrate induction were also performed. The cells were seeded and grown similar to the conditions described above. On day 7, […] sodium butyrate was introduced into the perfusion medium. On day 10, the sodium butyrate concentration was increased to 1.0 mM. On day 12, the sodium butyrate concentration was increased to 2.0 mM. On day 14, the sodium butyrate concentration was increased to 4.0 mM and on day 17, the sodium butyrate concentration was increased to 8.0 mM. Throughout the experiment, cell viability was over 85% and the viable cell concentration reached over 4.8×10^7 cells/ml."}, "[3]": {"tested_on": "CHO (Chinese Hamster Ovary) cell-derived cell line", "experiment": "Cell viability during production period, Example 4 (RaMP)", "details": "RaMP: 0.5 mM sodium butyrate day 10, 1.0 mM day 14; entire production period", "description": "Cells were seeded at 5×10^5 cells/ml and were allowed to grow for 9 days in the bioreactor before induction with butyrate for the RaMP method. Conditions for this growth period are similar to those described in Example 1 above. On day 10, media containing 0.5 mM sodium butyrate was perfused into the bioreactor. On day 14, media containing 1.0 mM sodium butyrate was perfused into the bioreactor.\nCell viability was monitored daily throughout the production period. Over the entire production period, cell viability remained high and never dropped below 85% for both traditional perfusion and RaMP methods."}, "[4]": {"tested_on": "CHO (Chinese Hamster Ovary) cell-derived cell line", "experiment": "Average daily specific productivity: perfusion, fed-batch and RaMP", "details": "for Average Daily Specific Productivity: 10 day production run", "description": "Average daily specific productivity was compared using traditional perfusion, fed-batch with sodium butyrate induction and RaMP processes. The same production cell line was used for all three methods. Culture conditions for all three methods were similar to those described in Example 1 above. Cells were inoculated at 5×10^5 cells/ml and were allowed to grow to the desired concentration before induction with sodium butyrate. Fed-batch culture was induced with sodium butyrate as a bolus addition. Fed-batch specific productivity calculations were normalized and averaged for new protein production per day. Average daily specific productivity was calculated using production yields from a 10 day production run. Maximal sodium butyrate concentration was 2 mM for both fed-batch and RaMP processes. Average daily yields using the RaMP method was approximately 6 times more than fed-batch or traditional perfusion methods."}, "[5]": {"tested_on": "CHO (Chinese Hamster Ovary) cell-derived cell line", "experiment": "Cell viability with gradual NaB ramping in perfusion culture (summary experiment)", "description": "In one experiment, 0.5 mM NaB (final concentration) was introduced into the bioreactor by perfusing RBM12.1 medium with 0.5 mM NaB into the bioreactor on day 7 of the production run. On day 10, the bioreactor was perfused with RBM 12.1 medium with 1.0 mM NaB. On day 13, the bioreactor was perfused with RBM12.1 medium with 1.5 mM NaB."}}}
{"smiles": "CCCC(=O)[O-].[Na+]", "note": "[sodium butyrate]", "values": [{"measurement": "% viable cells (RaMP)", "setting": "[1]; 1 mM Na butyrate perfused from start of production period, day 10", "value": 97, "unit": "%"}, {"measurement": "% viable cells (RaMP)", "setting": "[1]; 1 mM Na butyrate, day 11", "value": 97.6, "unit": "%"}, {"measurement": "% viable cells (RaMP)", "setting": "[1]; 1 mM Na butyrate, day 12", "value": 96.4, "unit": "%"}, {"measurement": "% viable cells (RaMP)", "setting": "[1]; 1 mM Na butyrate, day 13", "value": 97.1, "unit": "%"}, {"measurement": "% viable cells (RaMP)", "setting": "[1]; 1 mM Na butyrate, day 14", "value": 95.7, "unit": "%"}, {"measurement": "% viable cells (RaMP)", "setting": "[1]; 1 mM Na butyrate, day 15", "value": 96.1, "unit": "%"}, {"measurement": "% viable cells (RaMP)", "setting": "[1]; 1 mM Na butyrate, day 16", "value": 97.2, "unit": "%"}, {"measurement": "% viable cells (RaMP)", "setting": "[1]; 1 mM Na butyrate, day 17", "value": 96.4, "unit": "%"}, {"measurement": "% viable cells (RaMP)", "setting": "[1]; 1 mM Na butyrate, day 18", "value": 97, "unit": "%"}, {"measurement": "% viable cells (RaMP)", "setting": "[1]; 1 mM Na butyrate, day 19", "value": 96.9, "unit": "%"}, {"measurement": "% viable cells (RaMP)", "setting": "[1]; 1 mM Na butyrate, day 20", "value": 95.8, "unit": "%"}, {"measurement": "cell viability", "setting": "[1]; RaMP method, 1 mM Na butyrate, production period", "value": "sustained high cell viability"}, {"measurement": "% viable cells", "setting": "[2]; Na butyrate 0.5 mM, day 7", "value": 97.3, "unit": "%"}, {"measurement": "% viable cells", "setting": "[2]; Na butyrate 0.5 mM, day 8", "value": 97.8, "unit": "%"}, {"measurement": "% viable cells", "setting": "[2]; Na butyrate 0.5 mM, day 9", "value": 97.8, "unit": "%"}, {"measurement": "% viable cells", "setting": "[2]; Na butyrate 1.0 mM, day 10", "value": 97.8, "unit": "%"}, {"measurement": "% viable cells", "setting": "[2]; Na butyrate 1.0 mM, day 11", "value": 96.6, "unit": "%"}, {"measurement": "% viable cells", "setting": "[2]; Na butyrate 2.0 mM, day 12", "value": 97.2, "unit": "%"}, {"measurement": "% viable cells", "setting": "[2]; Na butyrate 2.0 mM, day 13", "value": 95.9, "unit": "%"}, {"measurement": "% viable cells", "setting": "[2]; Na butyrate 4.0 mM, day 14", "value": 97, "unit": "%"}, {"measurement": "% viable cells", "setting": "[2]; Na butyrate 4.0 mM, day 15", "value": 96.7, "unit": "%"}, {"measurement": "% viable cells", "setting": "[2]; Na butyrate 4.0 mM, day 16", "value": 94.2, "unit": "%"}, {"measurement": "% viable cells", "setting": "[2]; Na butyrate 8.0 mM, day 17", "value": 94.7, "unit": "%"}, {"measurement": "% viable cells", "setting": "[2]; Na butyrate 8.0 mM, day 18", "value": 93.3, "unit": "%"}, {"measurement": "% viable cells", "setting": "[2]; Na butyrate 8.0 mM, day 19", "value": 91.5, "unit": "%"}, {"measurement": "% viable cells", "setting": "[2]; Na butyrate 8.0 mM, day 20", "value": 88.1, "unit": "%"}, {"measurement": "cell viability", "setting": "[2]; sodium butyrate stepped 0.5 to 8.0 mM, day 7 to day 17, throughout the experiment", "value": "over 85%"}, {"measurement": "viable cell concentration", "setting": "[2]; sodium butyrate stepped 0.5 to 8.0 mM, reached", "value": "over 4.8×10^7 cells/ml"}, {"measurement": "cell viability", "setting": "[3]", "value": "≥ 85", "unit": "%"}, {"measurement": "Average Daily Specific Productivity", "setting": "[4]; Fed-batch, sodium butyrate bolus addition, maximal 2 mM", "value": "0.10 g/L/day ± 0.03"}, {"measurement": "Average Daily Specific Productivity", "setting": "[4]; RaMP, maximal sodium butyrate 2 mM", "value": "0.64 g/L/day ± 0.07"}, {"measurement": "Average daily yields using RaMP relative to fed-batch or traditional perfusion methods", "setting": "[4]; maximal sodium butyrate 2 mM", "value": "approximately 6 times"}, {"measurement": "cell viability", "setting": "[5]; 0.5 mM NaB day 7, 1.0 mM day 10, 1.5 mM day 13", "value": "did not decrease"}, {"measurement": "cell viability", "setting": "[5]; gradual ramping of sodium butyrate to desired maximal concentration, compared to bolus addition", "value": "over 85%"}]}
